Drawing on PMC6411751, “Use of machine learning to identify novel, behaviorally active antagonists of the insect odorant receptor co-receptor (Orco) subunit” (Scientific Reports, 2019), this text covers IC50 and inhibition for twelve molecules.

Broadly, the IC50 is the concentration that gives 50% inhibition. By inhibition is commonly meant the drop in the measured response relative to a control, in per cent.

One experiment deals with T1, Agam\Orco (Anopheles gambiae, UniProt Q7QCC7).
T1 construct: expressed in transfected cells; host or cells: Xenopus laevis oocytes injected with capped cRNA (plasmid pT7TS, gift of L. Zwiebel)
T1 sequence (Q7QCC7 1-478): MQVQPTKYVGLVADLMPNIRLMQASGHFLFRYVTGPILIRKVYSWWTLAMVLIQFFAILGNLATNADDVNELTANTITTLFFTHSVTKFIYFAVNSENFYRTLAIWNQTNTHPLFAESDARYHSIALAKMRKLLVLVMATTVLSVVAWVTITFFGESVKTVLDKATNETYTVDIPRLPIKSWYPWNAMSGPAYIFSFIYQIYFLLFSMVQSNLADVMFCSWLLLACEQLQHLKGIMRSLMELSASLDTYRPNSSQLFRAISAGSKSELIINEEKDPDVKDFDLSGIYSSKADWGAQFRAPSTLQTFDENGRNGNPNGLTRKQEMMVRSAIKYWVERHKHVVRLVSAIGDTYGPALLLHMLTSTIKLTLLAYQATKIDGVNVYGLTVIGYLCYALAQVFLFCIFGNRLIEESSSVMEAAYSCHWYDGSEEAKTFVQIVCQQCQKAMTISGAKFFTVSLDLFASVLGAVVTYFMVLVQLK
The experiment can be described thus: cell-based. Type of experiment: cell-based.
Details: not given
As for the experimental part: A 2 hr incubation with collagenase B (Roche) was used to remove follicle cells from oocytes. Capped cRNA for Agam\Orco was synthesized using mMessage mMachine kits (Thermo Fisher Scientific). 25 ng of cRNA was injected into stage V–VI oocytes, followed by a 2–5 day incubation at 18 °C in Barth’s saline (in mM: 88 NaCl, 1 KCl, 2.4 NaHCO3, 0.3 CaNO3, 0.41 CaCl2, 0.82 MgSO4, 15 HEPES, pH 7.4, and 0.05 g/L tetracycline, 0.05 g/L ciprofloxacin, 0.1 g/L amikacin) prior to electrophysiological recordings.
An automated parallel electrophysiology system (OpusExpress 6000 A, Molecular Devices) was used to record Orco agonist (OLC12) or odorant induced currents under two-electrode voltage clamp. Oocytes were perfused with ND96 (in mM: 96 NaCl, 2 KCl, 1 CaCl2, 1 MgCl2, 5 HEPES, pH 7.4). DMSO was used to prepare 1 M or 100 mM stock solutions of test compounds, which were then diluted in ND96 on the day of the experiment. Compounds were applied at a flow rate of 1.0 mL/min, with extensive washing in ND96 at 4.6 mL/min between applications. Micropipettes with resistances of 0.2–2.0 MΩ were filled with 3 M KCl. The holding potential was −70 mV. Current responses were filtered (4-pole, Bessel, low pass) at 20 Hz (−3 db) and sampled at 100 Hz. OpusXpress 1.1 software (Molecular Devices) was used to capture and store current responses.
To measure antagonist activity at Orco, Agam\Orco was activated by the Orco agonist OLC12[34]. […] The current response to OLC12 in the presence of antagonist candidate was compared to the mean of the preceding two responses to OLC12 alone and presented as a percentage[34],[35]. This value was then normalized to the value obtained when the assay was run in the absence of antagonist candidate (sham).
During development of the training panel (Fig. 2, Tables S1 and S2), all compounds not previously known to be Orco antagonists were tested at a concentration of 3 mM. […] Concentration-inhibition curves were constructed for all compounds eliciting >20 percent inhibition at 3 mM. The same concentration and criteria were used during screening of predicted actives (Fig. 4D) and predicted inactives (Fig. 5C).
Clampfit 9.1 software (Molecular Devices) was used to perform initial analysis of electrophysiological data. Prism 7 (Graphpad) was used for curve fitting. Concentration-inhibition data were fit to the equation: I = Imax/(1 + (X/IC50)^n) where I represents the current response at a given concentration of inhibitor, X; Imax is the maximal response in the absence of inhibitor; IC50 is the concentration of inhibitor present that allows a half maximal response from OLC12; n is the apparent Hill coefficient.
Molecule `CC(C)c1ccc(CO)cc1` [4-isopropylbenzyl alcohol] yielded an IC50 of 0.605 ± 0.116 mM.

Still in this experiment, the particulars now being: Table S1; training actives; Agam\Orco activated by 30 µM OLC12; mean ± SEM (n = 3-8); read-out: IC50.
Take `O=Cc1ccc(O)cc1` [4-hydroxybenzaldehyde]: the IC50 is 3.62 ± 0.449 mM.

Consider `CC(C)=CCC[C@@H](C)CC=O` [(R)-(+)-citronellal], for which the IC50 turned out to be 0.651 ± 0.058 mM.

On to `NCCc1c[nH]c2ccccc12` [tryptamine], for which the IC50 stood at 0.048 ± 0.01 mM.

Take `c1ccsc1` [thiophene]: the IC50 came to 2.67 ± 0.147 mM.

Consider `C=C(C)[C@@H]1CC[C@@H](C)C(=O)C1` [(+)-dihydrocarvone], for which the IC50 worked out at 1.24 ± 0.219 mM.

Consider `Brc1ccccc1` [bromobenzene], for which the IC50 is 1.16 ± 0.143 mM.

As for `CC(C)CCOC(=O)Cc1ccccc1` [isoamyl phenylacetate], the IC50 was 0.692 ± 0.066 mM.

Consider `CC12CCC(CC1)C(C)(C)O2` [eucalyptol], for which the IC50 came to 2.96 ± 0.255 mM.

Staying with this experiment, now noted: read-out: inhibition of Agam\Orco (OLC12 response) at 3 mM; 3 mM compound, 30 µM OLC12.
As for `N[C@@H](Cc1c[nH]c2ccccc12)C(=O)O` [tryptophan], the inhibition at 3000 µM is no more than 20%.

As for `CC1=CCC2CC1C2(C)C` (stereo not drawn) [α-pinene], the inhibition at 3000 µM was no more than 20%.

Regarding `N[C@@H](Cc1c[nH]cn1)C(=O)O` [histidine], the inhibition at 3000 µM was no more than 20%.
